For data set [1] the following is noted: Franz cells, 48 hours, donor 0.1% 6027 in DMSO, acceptor PBS + 2% Volpo; % of total 6027.
Method: Pig ears from freshly slaughtered pigs, not older than 5 months and of both sexes, were obtained from the slaughterhouse Bell Schweiz AG (Basel, Switzerland). The ears were washed with tap water and the hairs were removed with an electric clipper. The skin was separated from the underlying cartilage from the backside of the ear by using a scalpel. After washing the skin again, it was stored in aluminium foil at −20° C. for no longer than one month.
After thawing the frozen skin, it was cut into adequate circles and the skin thickness was measured with a calliper. The skin was mounted into the FDC, tightly sealed with Teflon band and fixed in special designed holder. Then the acceptor compartment was equipped with a magnetic stirrer, filled with placebo formulation and equilibrated for one hour. To check the barrier integrity and to be sure that there are no invisible damages from skin preparation TEWL (transepidermal water loss) was measured. The FDCs were then placed in the water bath +32° C.±1 over a magnetic stirrer (500 rpm). Due to differences of each FDC, the skin application area for drug permeation was measured and calculated for each cell in advance. Consequently, the amount of 6027 for the donor compartment had to be adjusted for the infinite-dose experiment to 284.1 μL/cm^2.
At predefined time points 50 μL samples were taken from the acceptor compartment. The missing volume was replaced with the corresponding placebo formulation.
At the end of the permeation experiment and before reassembling the FDCs, the donor compartments were washed out with 10 mL ACN:H2O (55:45).
To extract 6027 from the skin, the frozen skin was cut into small pieces and grinded by a cryogenic grinder Freezer/Mill® from Spex SamplePrep (Metuchen, USA). The setting was 10 min precooling and a rate of 10 CPS for 4 cycles with 2 minutes. The resulting powder was resuspended in 2 mL ACN:H2O (55:45). […]
The concentrations of 6027 were determined by using HPLC-MS from Agilent Technologies. […]
Data set [2] deals with patient derived Basal Cell Carcinoma (BCC). The data set is described as follows: Ex vivo patient-derived nodular BCC (Example 10), Ki67. The format is cell-based, human. The following applies: 500 nM, 4 days, compared to Vismodegib (20 μM); p<0.002. Here is the method: Tumour material was harvested from a nodular basal cell carcinoma (BCC) from a patient's upper back.
Vismodegib (20 μM) was used as a positive control.

The test system of data set [3] is B16F10 xenografts in C57BL/6 mice. Briefly: Histopathology (Ki67, TUNEL) of tumour slices from treated mice. Format: in vivo, mouse. The following applies: daily 20 μl of 6027 vs vehicle treated controls; Two-Way ANOVA. As to the method: The read out was tumour volume measured three times a week expressed as tumour volume (in cm^3). Additionally, tumour samples were taken for histological analysis (Tumour FFPE) (2 mice per group).
Histopathology. After sacrifice non ulcerated tumours were sampled and paraffin blocks were prepared for immunohistochemistry stainings. […] During interphase, the Ki-67 antigen can be exclusively detected within the cell nucleus, whereas in mitosis most of the protein is relocated to the surface of the chromosomes. Ki-67 protein is present during all active phases of the cell cycle (G1, S, G2 and mitosis), but is absent in resting (quiescent) cells (G0). Cellular content of Ki-67 protein markedly increases during cell progression through S phase of the cell cycle.
TUNEL staining was used to determine areas of the tumour in which apoptosis was observed. Terminal deoxynucleotidyl transferase dUTP nick end labeling (TUNEL) staining is a method for detecting DNA fragmentation by labeling the 3′-hydroxyl termini in DNA double-stranded breaks generated during apoptosis.

Data set [4] relates to patient derived high grade cutaneous squamous cell carcinoma (cSCC). Briefly: Ex vivo patient-derived high grade cSCC (Example 11), Ki67. Format: cell-based, human. The following applies: 500 nM, 4 days, vs DMSO; p<0.003. The source says: Tumour material was harvested from high grade cutaneous squamous cell carcinoma (cSCC) from a patient's head.
Data set [5] is described as follows: Dermal tolerability in the in vivo efficacy test. Details: species or system mouse. The following applies: 20 μl of 5% 6027 once a day. As to the method:
In vivo efficacy test methodology. C57Bl/6 mice (Janvier Labs); females; 6-8 weeks old at beginning of the treatment. The tumour was induced through intradermal inoculation of 1×10^5 cells per mouse intradermally in the skin of the neck. A total of 24 mice were used (n=8 for vehicle, n=8 for 5% 6027, n=8 for leucinostatin A 0.2%). Test item was applied starting on day 1 after inoculation of the tumour cells. The test items of 20 μl of 5% 6027 and of 0.2% Leucinostatin A were applied dermally with a pipette once a day every day for up to 21 days to the intact skin area of about 1 cm^2 on the site were the B16-F10 cells had been injected. If ulceration occurred then the animal was removed from the test and sacrificed.

Data set [6] concerns healthy skin dermal fibroblasts. As to the method: (§1) For the maintenance of healthy human fibroblast cell culture Dulbecco's Modified Eagle Medium (DMEM, Cat #11966025, Gibco) supplemented with 10% heat-inactivated fetal bovine serum (Cat #S006420H01, BioWest) was used. For the maintenance of melanoma cell cultures RPMI-1640 (Cat #R0883, Gibco) supplemented with L-glutamine (Cat #25030-081, Gibco), 1 mM sodium pyruvate (Cat #S8636, Sigma-Aldrich), 10% heat-inactivated fetal bovine serum (Cat #S006420H01, BioWest) and 1% Penicillin-Streptomycin (Cat #15140122, Gibco) was used. The MyLa_CTCL cell cultures were cultivated in RPMI 1640 Medium (R0883) supplemented with 2 mM L-Glutamine (G7513), 10 U/ml IL-2 (H7041), 10 U/ml IL-4 (H7291) and 10% Human AB Serum (H4522). The cutaneous squamous cell carcinoma cell cultures A431 and SCC13 were cultivated in Dulbecco's Modified Eagle Medium (DMEM, Cat #11966025, Gibco) supplemented with 10% heat-inactivated fetal bovine serum (Cat #S006420H01, BioWest).
(§2) To determine the half maximal inhibitory concentrations (IC50's) serial dilution of compounds in DMSO to 1000× was performed (10 mM, 5 mM, 1 mM, 500 μM, 250 μM, 100 μM, 10 μM, 1 μM). 2 μl of these dilutions were further diluted in 198 μl growth medium with supplements, mixed well and 10 μl were further dispensed in triplicates to the 96-well plates containing cells in 90 μl.
(§3) For each drug condition and cell culture (for each row of the triplicate) a well with only RPMI-1640 complete/KSFM/DMEM media and one with media and DMSO were made as controls. DMSO was never at a higher concentration than 0.2% v/v. Triplicates were seeded for each condition. On the day of the assay, the medium was exchanged with cell culture media containing 0.1% of Resazurin-sodium salt stock solution (stock: 0.015 mg/ml, in PBS, Cat #R7017, Sigma-Aldrich). […] With a fluorescence-based plate reader (Infinite M200 Pro, Tecan, Switzerland) using excitations between […] and emissions at 590 nM the cell-culture plates were readout. The calculations and graphs are performed with GraphPad Prism program. Vehicle treated wells were set to 100% viability.

In data set [7] the test system is cutaneous melanoma M150507. The following applies: read-out: IC50 M150507. Here is the method: as §1, §2, §3
The test system of data set [8] is cutaneous T cell lymphoma MyLa_CTCL. The following applies: read-out: IC50 MyLa_CTCL. As to the method:
as §1, §2, §3

For data set [9], the system named is cutaneous squamous cell carcinoma cell line A431_SCC. The following applies: read-out: IC50 A431. Here is the method:
as §1, §2, §3

The next data set deals with M130107. The following applies: read-out: IC50 M130107. Here is the method:
as §1, §2, §3

For data set [10], the system named is cutaneous melanoma M010817. The following applies: read-out: IC50 M010817. As to the method:
as §1, §2, §3

The subject of data set [11] is cutaneous melanoma M150672. The following applies: read-out: IC50 M150672. As to the method:
as §1, §2, §3

The test system of data set [12] is cutaneous squamous cell carcinoma cell line SCC13. The following applies: read-out: IC50 SCC13. Here is the method: as §1, §2, §3
The test system of data set [13] is cutaneous squamous cell carcinoma cell line SCC12. The data set is described as follows: In vitro anti-proliferative assay (resazurin) in SCC12. Format: cell-based. The following applies: SCC12, 72 hours. An excerpt: Methodology. The cutaneous squamous cell carcinoma cell culture SCC12 was cultivated in keratinocyte-SFM media (KSFM, Cat #17005042, Gibco) supplemented with human recombinant epidermal growth factor 1-53 (EGF 1-53) and bovine pituitary extract (BFE).
Vehicle treated wells were set to 100% viability.

Experimental findings from patent US20260049101A1, “TOPICAL TREATMENT OF SKIN CANCER USING OLIGOPEPTIDES” (BACOBA AG, priority 2022, published 2026) are described below.

Entries after “also recorded” stand apart in the source; their conditions may differ. Square brackets hold non-standard residues; d marks the D form. Peptide text beside a SMILES is read from it. * marks the point of attachment. NH(1-CH2NMe2-cBu) = CN(C)CC1(N*)CCC1; Benzoyl(4-F) = O=C(c1ccc(F)cc1)*; hCha = N[C@@H](CCC1CCCCC1)C(=O)O; Aib = CC(C)(N)C(=O)O; βAla = NCCC(=O)O

Regarding `CC(C)C[C@H](NC(=O)[C@H](CCC1CCCCC1)NC(=O)[C@@H]1CCCN1C(=O)c1ccc(F)cc1)C(=O)NC(C)(C)C(=O)N[C@@H](CC(C)C)C(=O)N[C@@H](CC(C)C)C(=O)NC(C)(C)C(=O)NC(C)(C)C(=O)NCCC(=O)NC1(CN(C)C)CCC1` [Compound 6027, (2S)-2-[(2S)-4-cyclohexyl-2-{[(2S)-1-(4-fluorobenzoyl)pyrrolidin-2-yl]formamido}butanamido]-N-(1-{[(1S)-1-{[(1S)-1-({1-[(1-{[2-({1-[(dimethylamino)methyl]cyclobutyl}carbamoyl)ethyl]carbamoyl}-1-methylethyl)carbamoyl]-1-methylethyl}carbamoyl)-3-methylbutyl]carbamoyl}-3-methylbutyl]carbamoyl}-1-methylethyl)-4-methylpentanamide] ({Benzoyl(4-F)}-P[hCha]L[Aib]LL[Aib][Aib][βAla]-{NH(1-CH2NMe2-cBu)}), the “Acceptor (%)” value in data set [1] is listed as 0.2%. In data set [1], the “Donor (%)” value is 79%. Moreover, the “Skin extraction (%) (skin penetration)” value in data set [1] worked out at 16%. Also, the “cell proliferation (Ki67)” value in data set [2] and in data set [4] was “significantly reduced” throughout. Moreover, the “apoptotic cells (TUNEL) in tumour slices” value in data set [3] is given as “significant increase of apoptotic cells; also recorded: Strong proapoptotic potential”. Besides, the “proliferative cells (Ki67) in tumour slices” value in data set [3] was “significant decrease in proliferative cells”. Moreover, in data set [5], the “skin irritations or other side effects” value was “No skin irritations or other side effects were observed; also recorded: did not show skin irritations”. Moreover, the “tolerability of dermal treatment” value in data set [5] was “well tolerated”. Further, the “cytotoxicity against healthy skin dermal fibroblasts compared with skin cancer cell lines” value in data set [6] is “less pronounced”. Further, the IC50 in [6] (read-out: IC50 Fibroblast, healthy skin dermal fibroblasts) came out at 3030 nM; in data set [7], 56 nM; in data set [8] it was 451 nM; in data set [9], 70 nM; in the data set with M130107, 169 nM; in [10] it was 60 nM. In addition, the IC50 in [11] amounted to 122 nM; in data set [12] it was 191 nM; in data set [13] it was 118 nM.
